Patent publication US7595300B2, “7-quinolyl ketolide antibacterial agents” (priority 2005, dated 2009)
Values after ≈ are worked out from the molar mass of the structure shown. Like-named read-outs stand apart in the source and are kept apart here.

Tests used:
S. pyogenes = assay: MIC, NCCLS broth microdilution, respiratory pathogens; assay type: cell-based; details: Streptococcus pyogenes
Experimental: (§1) Minimum inhibitory concentrations (“MICs”) were determined by the NCCLS broth microdilution procedure for susceptibility testing for bacteria that grow aerobically (National Committee for Clinical Laboratory Standards, 1997. Methods for dilution antimicrobial susceptibility tests for bacteria that grow aerobically, 4th ed. Approved standard. NCCLS Document M7-A4. National Committee for Clinical Laboratory Standards, Villanova, Pa.). Stock solutions were prepared on the day of the test and appropriate aliquots were added to cation adjusted Mueller-Hinton broth (CAMHB, DIFCO) or Haemophilus test media. Two-fold serial dilutions were prepared and added to wells in microtiter plates. Final test concentrations ranged from 8 to 0.004 ug/ml. Broth cultures of bacteria inoculated from growth on overnight plates for all test bacteria except Streptococcus pneumoniae and Haemophilus influenzae were incubated at 35° C. and then adjusted to the Kirby Bauer standard and diluted in CAMHB to achieve a final inoculum concentration of approximately 5×10^5 CFU/ml. Inocula for S. pneumoniae and H. influenzae were prepared by directly suspending colonies from an overnight plate, adjusting the turbidity and diluting as above. S. pneumoniae media was supplemented with 3% lysed horse blood. All plates were incubated in ambient air at 35° C. for 20-24 h for S. pneumoniae and Haemophilus influenzae and 16-20 h for all other bacteria.

Streptococcus pneumoniae = assay: as above; assay type: cell-based; details: S. pneumoniae
Experimental: as §1

Haemophilus influenzae = assay: as above; assay type: cell-based; details: H. influenzae
Experimental: as §1

M. catarrhalis = assay: as above; assay type: cell-based; details: Moraxella catarrhalis
Experimental: as §1

human hepG2 hepatocytes = assay: In vitro hepatotoxicity, resazurin and Nile Red staining; assay type: cell-based; details: 100 μM
Experimental: In one experiment, hepatotoxicity was estimated by overnight incubation of compounds at 3, 10, 30, 100, or 300 μM with cultured rat or human hepG2 hepatocytes, followed by staining of the cells with resazurin to measure viability or with Nile Red to measure steatosis. The minimal drug concentration at which changes in dye binding were observed was noted as the minimal effective concentration. The compound of formula (VIII) wherein Z=3-quinolyl affected […] and steatosis in human HepG2 hepatocytes at 30 μM.

in vivo = details: male, beagle, dog, iv; for AUC: AUCtot
Experimental: The dosing route was an intravenous infusion jugular vein access). The infusion was accomplished using a CADD Prizm® ambulatory infusion pump attached to a jacket worn by the dog. The dose duration for the intravenous infusion was 30 min for all doses administered, except the last dose (30 mg/kg) where the infusion period was extended to 45 min to accommodate the larger dose volume required for this dose. The vehicle dose and diluent for the test article was 0.05-M sodium citrate in sterile water for injection.
There was one treatment group of four non-naïve dogs and the study was comprised of both pharmacokinetic and telemetry phases, as summarized in the dose administration table for compound (III) (Table 16) below. At least one week was given between dosings to allow clearance of the drug.
For the pharmacokinetic (PK) phase, the blood collection intervals were: predose, 10, 20, 30, (end dose time), 35, 45, 60, 90, 150, 270, 390, 510, 1440, and 2880 min relative to the start of the infusion. Whole blood (˜2 mL) was collected into Vacutainerss' (BD, Franklin, N.J.) containing sodium heparin as the anticoagulant agent. Blood samples were centrifuged at a speed of 3000 rpm, a temperature of 4° C. and a run time of 10 min. Plasma samples were transferred to amber glass vials and analyzed by LC/MS/MS to determine drug concentrations.

P. acnes = assay: MIC, NCCLS Reference Agar Dilution Method for anaerobic bacteria; assay type: cell-based, Propionibacterium acnes
Experimental: Minimum inhibitory concentrations (“MICs”) were determined by the NCCLS Reference Agar Dilution Method (M11-A5, Vol. 21, No. 2) for anaerobic bacteria. A panel of 84 antibiotic-susceptible and resistant strains of Propionibacteria from distinct geographic locations were selected. Following revival from frozen stocks, each strain was purity plated onto Wilkins Chalgren Agar, pH 7.2 (Oxoid, UK), and the appropriate antibiotic resistance/susceptibility phenotype was confirmed by antibiotic disc testing. Each strain was subjected to an agar dilution MIC assay. […] The inocula for each batch of strains were prepared from 7-day old Wilkins Chalgren Agar plate cultures by resuspension of colonies in Wilkins Chalgren Anaerobe broth, pH 7.2 (Oxoid, UK) to an optical density (OD600) of 0.2±0.02. The inoculum (1.0-2.0 μL) for each strain was applied to a Wilkins Chalgren Agar MIC plate in a grid pattern using a Multipoint Inoculator (Denley, UK). All agar plates were incubated at 37° C. for 3 days under anaerobic conditions in AnaeroPack 7 liter rectangular jars (Mitsubishi Gas Chemical Company, Inc., Japan).

[1] = tested on: Streptococcus pneumoniae ATCC 6303; assay: rat lower respiratory tract infection (lung pneumonia) model; assay type: in vivo; details: for Log CFU/g (avg, n = 8): rat lungs, 12 hours after the last dose
Experimental: The in vivo efficacy of compounds (II) and (III) were evaluated in a rat lower respiratory tract infection model. Groups of 8 rats were infected intratracheally with 0.5 mL containing 10^6 CFUs of Streptococcus pneumoniae ATCC 6303 in 5% hog gastric mucin. Compounds dissolved in ethanol were administered by oral gavage daily over 3 days starting 18 hours post-inoculation. Lungs were aseptically removed from survivors 12 hours after the last dose and examined for visible signs of infection, then homogenized in sterile PBS and plated for determination of CFUs by log plating on Columbia agar-nalidixic acid plates.

[2] = genotype sensitive, read-out: MIC50
[3] = genotype sensitive, read-out: MIC90

**Q.** Which MIC50 (S. pyogenes; genotype ermB) does the source give for `CC1CC(N(C)C)C(O)C(O[C@@H]2[C@@H](C)C(=O)[C@](C)(F)C(=O)O[C@H](CCF)[C@@]3(C)OC(=O)N[C@@H]3[C@@H](C)C(=O)[C@H](C)C[C@@]2(C)OC/C=C/c2ccc3cccnc3c2)O1` (some centres unmarked) [Compound (III), 6-O-(1-(7-quinolyl)-3-propenyl)-11-amino-11-deoxy-3-(descladinosyl)-3-oxo-2,15-difluoroerythromycin A-11,12-cyclic carbamate] here?
**A.** 0.12 µg/mL (≈ 0.15 µM)

**Q.** What about the MIC90 (S. pyogenes; genotype ermB) of the same compound?
**A.** 1 µg/mL (≈ 1.25 µM)

**Q.** And the MIC50 (S. pyogenes; genotype mef, read-out: MIC50)?
**A.** 0.12 µg/mL (≈ 0.15 µM)

**Q.** And the MIC90 (S. pyogenes; genotype mef, read-out: MIC90)?
**A.** 0.12 µg/mL (≈ 0.15 µM)

**Q.** And the MIC50 (S. pyogenes; [2])?
**A.** 0.06 µg/mL (≈ 0.0748 µM)

**Q.** What about the MIC90 (S. pyogenes; [3]) of the same compound?
**A.** 0.06 µg/mL (≈ 0.0748 µM)

**Q.** And the MIC50 (Streptococcus pneumoniae; 20 h, genotype ermB + mef)?
**A.** 0.5 µg/mL

**Q.** And the MIC50 (Streptococcus pneumoniae; genotype ermB)?
**A.** 0.12 µg/mL (≈ 0.15 µM)

**Q.** What about the MIC90 (Streptococcus pneumoniae; genotype ermB) of the same compound?
**A.** 0.12 µg/mL (≈ 0.15 µM)

**Q.** What about the MIC90 (Streptococcus pneumoniae; genotype ermB + mef) of the same compound?
**A.** 1 µg/mL

**Q.** What about the MIC50 (Streptococcus pneumoniae; genotype mef, read-out: MIC50) of the same compound?
**A.** 0.25 µg/mL (≈ 0.312 µM)

**Q.** And the MIC90 (Streptococcus pneumoniae; genotype mef, read-out: MIC90)?
**A.** 0.25 µg/mL (≈ 0.312 µM)

**Q.** What about the MIC50 (Streptococcus pneumoniae; [2]) of the same compound?
**A.** 0.03 µg/mL (≈ 0.0374 µM)

**Q.** What about the MIC90 (Streptococcus pneumoniae; [3]) of the same compound?
**A.** 0.03 µg/mL (≈ 0.0374 µM)

**Q.** And the MIC50 (Haemophilus influenzae; resistant)?
**A.** > 8 µg/mL

**Q.** What about the MIC90 (Haemophilus influenzae; resistant) of the same compound?
**A.** > 8 µg/mL

**Q.** What about the MIC50 (Haemophilus influenzae; sensitive) of the same compound?
**A.** 2 µg/mL (≈ 2.49 µM)

**Q.** And the MIC90 (Haemophilus influenzae; sensitive)?
**A.** 4 µg/mL (≈ 4.99 µM)

**Q.** What about the MIC50 (M. catarrhalis) of the same compound?
**A.** 0.12 µg/mL (≈ 0.15 µM)

**Q.** And the MIC90 (M. catarrhalis)?
**A.** 0.12 µg/mL (≈ 0.15 µM)

**Q.** What about the “effects on metabolic stability and steatosis” value (human hepG2 hepatocytes) of the same compound?
**A.** No effects

**Q.** What about the Tmax (in vivo; 11 mg/kg) of the same compound?
**A.** 0.46 ± 0.08 h

**Q.** And the half-life (in vivo; 11 mg/kg)?
**A.** 5.36 ± 0.4 h

**Q.** What about the AUC (in vivo; 11 mg/kg) of the same compound?
**A.** 33900 ± 3190 ng·h/mL

**Q.** And the Cmax (in vivo; 11 mg/kg, Mean Cmax)?
**A.** 6000 ± 1130 ng/mL

**Q.** And the AUCtot (in vivo; 15 mg/kg)?
**A.** 36047 ± 22104 ng·h/mL

**Q.** And the “mean Cmax” value (in vivo; 15 mg/kg)?
**A.** 6206 ± 3144 ng/mL

**Q.** And the AUC (in vivo; 15 mg/kg)?
**A.** 43900 ± 23100 ng·h/mL

**Q.** And the Cmax (in vivo; 15 mg/kg, mean Cmax)?
**A.** 7520 ± 3310 ng/mL

**Q.** What about the MIC range (P. acnes; marker RNA 1058, phenotype TetR) of the same compound?
**A.** 0.06 to 1 µg/mL

**Q.** And the MIC range (P. acnes; marker RNA 1058/2058, phenotype TetR, EryR)?
**A.** 1 to 2 µg/mL

**Q.** And the MIC range (P. acnes; marker RNA 1058/2059, phenotype TetR, EryR)?
**A.** 0.5 µg/mL (≈ 0.623 µM)

**Q.** What about the MIC range (P. acnes; marker RNA 2057, phenotype EryR) of the same compound?
**A.** 0.06 µg/mL (≈ 0.0748 µM)

**Q.** What about the MIC range (P. acnes; marker RNA 2058, phenotype EryR) of the same compound?
**A.** 0.125 to 2 µg/mL

**Q.** And the MIC range (P. acnes; marker RNA 2058, phenotype EryR, TetR)?
**A.** 0.06 to 1 µg/mL

**Q.** And the MIC range (P. acnes; marker RNA 2059, phenotype EryR)?
**A.** 0.125 to 2 µg/mL

**Q.** And the MIC range (P. acnes; marker ermX, phenotype EryR)?
**A.** 32 to 128 µg/mL

**Q.** And the MIC range (P. acnes; marker none, phenotype none)?
**A.** 0.06 µg/mL (≈ 0.0748 µM)

**Q.** And the MIC range (P. acnes; marker unknown, phenotype ClindR)?
**A.** 0.06 µg/mL (≈ 0.0748 µM)

**Q.** And the “Log CFU/g (avg, n = 8)” value ([1]; 0.5 mg/kg oral gavage daily over 3 days)?
**A.** 3.9 Log CFU/g

**Q.** And the “Log CFU/g (avg, n = 8)” value ([1]; 2.5 mg/kg oral gavage daily over 3 days)?
**A.** 3.0 Log CFU/g

**Q.** What about the “% survivors” value ([1]; rat, 0.5 mg/kg oral gavage daily over 3 days) of the same compound?
**A.** 100%

**Q.** What about the “% survivors” value ([1]; rat, 2.5 mg/kg oral gavage daily over 3 days) of the same compound?
**A.** 100%

**Q.** And the “reducing the bacterial load in the rat lungs and increasing survival relative to control animals” value ([1]; rat, oral gavage daily over 3 days)?
**A.** efficacious
